Test results: patent US9951110B2, “Neuropeptides useful as insecticides” (THE STATE OF ISRAEL, MINISTRY OF AGRICULTURE & RURAL …, priority 2013, dated 2018)
Square brackets hold non-standard residues; d marks the D form. Ends that are not written are not given here. * marks the point of attachment. Cyclohexyl = cyclohexyl group capping the N-terminus, C1CCC(*)CC1; Fmoc = O=C(OCC1c2ccccc2-c2ccccc21)*

Tests used:
[1] = test system: Heliothis peltigera female moths; assay: Topical application: inhibition of sex pheromone biosynthesis (cuticular bioavailability); type: in vivo; details: for comparison of activity in IIS vs. tap water: topical application; for lowering of pheromone content compared to the solvent / inhibition of pheromone biosynthesis: 10 pmol
Protocol: FIG. 2. is a graph showing the effect of topically applied peptides on the inhibition of sex pheromone biosynthesis in Heliothis peltigera female moths. • The tested peptides are those listed in Table 1 (1-10, respectively). • Peptides were tested at a concentration of 10 pmol and were applied in IIS (0.5% ethanol, 0.05% Tween-80 in DDW), and DDW for 1 h. • Sex pheromone content is expressed as a percentage of the endogenous pheromone content obtained using control untreated moths (defined as 100%). Statistical analysis compared pheromone content in the presence of each peptide with that obtained with the corresponding solvents themselves (indicated by an asterisk).
FIG. 3A and FIG. 3B are graphs showing the dose response of Ac-A-dPhe-4 (3A) or Ac-A-dPhe-6 (3B) on inhibition of sex pheromone biosynthesis in Heliothis peltigera female moths. Peptides were applied in DDW for 1 h. • Sex pheromone content is expressed as a percentage of the endogenous pheromone content obtained using control untreated moths (defined as 100%). Statistical analysis compared pheromone content in the presence of each peptide at the indicated concentrations with that obtained with the solvent itself (indicated by an asterisk). A similar statistical analysis was also made against the pheromone content of untreated moths (indicated by #). […] Differences in the potency of the peptides at the indicated concentrations are depicted by letters.
FIG. 4. is a graph showing the time response of 1 nmol Ac-A-dPhe-4 and Ac-A-dPhe-6 (applied in DDW) on inhibition of sex pheromone biosynthesis in Heliothis peltigera female moths. • Sex pheromone content is expressed as a percentage of the endogenous pheromone content obtained using control untreated moths (defined as 100%). Statistical analysis compared pheromone content in the presence of each peptide at the indicated times with that obtained with the solvent itself at the same time point (indicated by an asterisk). […] Differences in the potency of the peptides at the indicated time points are depicted by letters. (Ac-A-dPhe-4: small letters; Ac-A-dPhe-6: capital letters).
FIG. 5A to FIG. 5C are graphs showing the effect of topically applied peptides on inhibition of sex pheromone biosynthesis in Heliothis peltigera female moths. • The tested peptides are those listed in Table 1 (1-6, respectively). Peptides were tested at a concentration of 1000 pmol (5A), 300 pmol (5B) or 100 pmol (5C) and were applied in DDW, DMSO and IIS for 7h. • Sex pheromone content is expressed as a percentage of the endogenous pheromone content obtained using control untreated moths (defined as 100%). Statistical analysis compared pheromone content in the presence of each peptide in a given solvent (DDW, DMSO or ITS) with that obtained with the solvents themselves (indicated by an asterisk).
a) Topical Application (TA)
This assay is used to determine cuticular penetrability.
The tested peptides are applied onto the insect (e.g. moths) at scotophase (when pheromone is naturally synthesized) in a given solvent for the indicated times.
Antagonistic activity was tested at a concentration of 10 pmol and the peptides were topically applied in two solvents: DDW and IIS (FIG. 2). […] Ac-A-dPhe-6 was the second best in IIS inhibiting pheromone biosynthesis by 74%.
Only minor differences in activity is observed as a function of a dose (with the exception of Ac-A-dPhe-4 at 1000 pmol, which inhibited pheromone production to a lesser extent of about 50%).
All experiments were carried out at the scotophase and the peptides were applied one hour before pheromone glands were excised (+5) and tested for pheromone content (at the 6th hour of the scotophase when the pheromone content is at its highest level). The high inhibition obtained under the tested conditions, indicates the extremely fast and high penetrability and bioactivity of the peptides of the invention. […]

[2] = test system: Spodoptera littoralis larvae; assay: Melanotropic inhibitory activity: injection with a stimulator (PBAN, PT, LPK, DH); type: in vivo; details: for Melanotropic inhibitory activity, stimulator DH: injected with DH (diapause hormone); for Melanotropic inhibitory activity, stimulator DH / Melanotropic inhibitory activity, stimulator LPK / Melanotropic inhibitory activity, stimulator PBAN / Melanotropic inhibitory activity, stimulator PT: 100 pm; for Melanotropic inhibitory activity, stimulator LPK: injected with LPK (leucopyrokinin); for Melanotropic inhibitory activity, stimulator PBAN: injected with PBAN, inhibition = 100 minus % melanization with vs without peptide; for Melanotropic inhibitory activity, stimulator PT: injected with PT (pheromonotropin); for inhibition of melanin synthesis stimulated by LPK: stimulator LPK; for inhibition of melanin synthesis stimulated by PBAN: stimulator PBAN; for inhibition of melanin synthesis stimulated by PT: stimulator PT
Excerpt: FIG. 12. is a graph showing the melanotropic inhibitory activity of the peptides of the invention against different stimulators of the PK/PBAN family: PBAN, PT (pheromonotropin), LPK (leucopyrokinin), DH (diapause hormone). • Degree of cuticular melanization is expressed as a percentage of the melanization obtained by injection the elicitor itself (PBAN, PT, LPK or DH) in the absence of the tested peptide (not shown). Statistical analysis compared the degree of melanization in the presence and absence of the tested peptide with any given elicitor. An asterisk indicates a significant difference between the degree of melanization obtained in the presence of the peptide. This assay is used to test the agonistic properties of the tested peptides (in adult females), and to determine the peptides melanotropic agonistic or antagonistic properties (in larvae). It was also used to determine the activity of peptides that were stored outdoors for different amounts of time. The peptides are injected into either adult female insects (e.g. moths) at photophase (when pheromone is not synthesized naturally, but the insect has the ability to produce pheromone upon stimulation with a agonist) or into 5th instar larvae. Agonistic properties were tested by injection of the peptides alone; antagonistic properties were determined by injection of the peptide together with a stimulator. The ability of the peptides to inhibit cuticular melanin synthesis was tested in Spodoptera littoralis larvae. Inhibitory activity was tested by injecting the peptides to Spodoptera littoralis larvae together with a given stimulator: PBAN, PT, LPK and DH. Inhibition is expressed as 100 minus the ratio in percentage (%) between the extents of cuticular melanization obtain in the presence and absence of the tested peptide (Table 2).

## Fmoc-Ala-[dPhe]-Pro-Arg-Leu-amide (Fmoc-A[dF]PRL-NH2; SMILES CC(C)C[C@H](NC(=O)[C@H](CCCNC(=N)N)NC(=O)[C@@H]1CCCN1C(=O)[C@@H](Cc1ccccc1)NC(=O)[C@H](C)NC(=O)OCC1c2ccccc2-c2ccccc21)C(N)=O) [Fmoc-A-dPhe-4]
[1]
  comparison of activity in IIS vs. tap water: No differences
[2]
  Melanotropic inhibitory activity, stimulator DH: 28%
  Melanotropic inhibitory activity, stimulator LPK: 100%
  Melanotropic inhibitory activity, stimulator PBAN: 68%
  Melanotropic inhibitory activity, stimulator PT: 100%

## Arg-Tyr-Phe-Ser-Pro-[dPhe]-Leu-amide (RYFSP[dF]L-NH2; N-terminus assumed; SMILES CC(C)C[C@H](NC(=O)[C@@H](Cc1ccccc1)NC(=O)[C@@H]1CCCN1C(=O)[C@H](CO)NC(=O)[C@H](Cc1ccccc1)NC(=O)[C@H](Cc1ccc(O)cc1)NC(=O)[C@@H](N)CCCNC(=N)N)C(N)=O) [dPhe-6]
[1]; topical, in DDW, 1 h
  lowering of pheromone content compared to the solvent: failed to lower pheromone content
[2]
  Melanotropic inhibitory activity, stimulator DH: 15%
  Melanotropic inhibitory activity, stimulator LPK: 78%
  Melanotropic inhibitory activity, stimulator PBAN: 49%
  Melanotropic inhibitory activity, stimulator PT: 74%

## Acetyl-Arg-Tyr-Phe-Ser-Pro-[dPhe]-Leu-amide (Ac-RYFSP[dF]L-NH2; SMILES CC(=O)N[C@@H](CCCNC(=N)N)C(=O)N[C@@H](Cc1ccc(O)cc1)C(=O)N[C@@H](Cc1ccccc1)C(=O)N[C@@H](CO)C(=O)N1CCC[C@H]1C(=O)N[C@H](Cc1ccccc1)C(=O)N[C@@H](CC(C)C)C(N)=O) [Ac-dPhe-6]
[2]
  Melanotropic inhibitory activity, stimulator DH: 35%
  Melanotropic inhibitory activity, stimulator LPK: 8%
  Melanotropic inhibitory activity, stimulator PBAN: 59%
  Melanotropic inhibitory activity, stimulator PT: 100%

## Fmoc-Ala-Ser-Pro-[dPhe]-Leu-amide (Fmoc-ASP[dF]L-NH2; SMILES CC(C)C[C@H](NC(=O)[C@@H](Cc1ccccc1)NC(=O)[C@@H]1CCCN1C(=O)[C@H](CO)NC(=O)[C@H](C)NC(=O)OCC1c2ccccc2-c2ccccc21)C(N)=O) [Fmoc-A-dPhe-6]
[2]
  Melanotropic inhibitory activity, stimulator DH: 35%
  Melanotropic inhibitory activity, stimulator LPK: 100%
  Melanotropic inhibitory activity, stimulator PBAN: 67%
  Melanotropic inhibitory activity, stimulator PT: 100%

## Acetyl-Ala-[dPhe]-Pro-Arg-Leu-amide (Ac-A[dF]PRL-NH2; SMILES CC(=O)N[C@@H](C)C(=O)N[C@H](Cc1ccccc1)C(=O)N1CCC[C@H]1C(=O)N[C@@H](CCCNC(=N)N)C(=O)N[C@@H](CC(C)C)C(N)=O) [Ac-A-dPhe-4]
[1]
  comparison of activity in IIS vs. tap water: No differences
[1]; topical in DDW, 1 h, 1000 pmol
  inhibition of pheromone production: about 50%
[1]; topical, in DDW, 1 h
  inhibition of pheromone biosynthesis: 83%
[1]; topical, 7 h, in IIS and DMSO, 100, 300, 1000 pmol
  activity as a function of the dose: less active at 100 pmol compared to 300 and 1000 pmol
[2]
  Melanotropic inhibitory activity, stimulator DH: 6%
  Melanotropic inhibitory activity, stimulator LPK: 31%
  Melanotropic inhibitory activity, stimulator PBAN: 54%
  Melanotropic inhibitory activity, stimulator PT: 100%
  inhibition of melanin synthesis stimulated by LPK: inhibited LPK
  inhibition of melanin synthesis stimulated by PBAN: inhibited PBAN
  inhibition of melanin synthesis stimulated by PT: inhibited PT

## Cyclohexyl-Ala-Ser-Pro-[dPhe]-Leu-amide (Cyclohexyl-ASP[dF]L-NH2; SMILES CC(C)C[C@H](NC(=O)[C@@H](Cc1ccccc1)NC(=O)[C@@H]1CCCN1C(=O)[C@H](CO)NC(=O)[C@H](C)NC1CCCCC1)C(N)=O) [Cyc-A-dPhe-6]
[2]
  Melanotropic inhibitory activity, stimulator DH: 15%
  Melanotropic inhibitory activity, stimulator LPK: 100%
  Melanotropic inhibitory activity, stimulator PBAN: 67%
  Melanotropic inhibitory activity, stimulator PT: 26%
  inhibition of melanin synthesis stimulated by LPK: inhibited LPK
  inhibition of melanin synthesis stimulated by PBAN: inhibited PBAN

## Acetyl-Arg-Tyr-Phe-[dPhe]-Pro-Arg-Leu-amide (Ac-RYF[dF]PRL-NH2; SMILES CC(=O)N[C@@H](CCCNC(=N)N)C(=O)N[C@@H](Cc1ccc(O)cc1)C(=O)N[C@@H](Cc1ccccc1)C(=O)N[C@H](Cc1ccccc1)C(=O)N1CCC[C@H]1C(=O)N[C@@H](CCCNC(=N)N)C(=O)N[C@@H](CC(C)C)C(N)=O) [Ac-dPhe-4]
[2]
  Melanotropic inhibitory activity, stimulator DH: 22%
  Melanotropic inhibitory activity, stimulator LPK: 51%
  Melanotropic inhibitory activity, stimulator PBAN: 70%
  Melanotropic inhibitory activity, stimulator PT: 100%
  inhibition of melanin synthesis stimulated by PBAN: inhibited PBAN
  inhibition of melanin synthesis stimulated by PT: inhibited PT

## Arg-Tyr-Phe-[dPhe]-Pro-Arg-Leu-amide (RYF[dF]PRL-NH2; N-terminus assumed; SMILES CC(C)C[C@H](NC(=O)[C@H](CCCNC(=N)N)NC(=O)[C@@H]1CCCN1C(=O)[C@@H](Cc1ccccc1)NC(=O)[C@H](Cc1ccccc1)NC(=O)[C@H](Cc1ccc(O)cc1)NC(=O)[C@@H](N)CCCNC(=N)N)C(N)=O) [dPhe-4]
[1]; topical, in IIS, 1 h
  lowering of pheromone content compared to the solvent: failed to lower pheromone content
[1]; topical, 300 pmol, 7 h, DDW, IIS, DMSO
  activity as a function of carrier: lower activity in DDW and IIS compared to DMSO
[2]
  Melanotropic inhibitory activity, stimulator DH: 33%
  Melanotropic inhibitory activity, stimulator LPK: 10%
  Melanotropic inhibitory activity, stimulator PBAN: 18%
  Melanotropic inhibitory activity, stimulator PT: 59%

## Cyclohexyl-Ala-[dPhe]-Pro-Arg-Leu-amide (Cyclohexyl-A[dF]PRL-NH2; SMILES CC(C)C[C@H](NC(=O)[C@H](CCCNC(=N)N)NC(=O)[C@@H]1CCCN1C(=O)[C@@H](Cc1ccccc1)NC(=O)[C@H](C)NC1CCCCC1)C(N)=O) [Cyc-A-dPhe-4]
[1]
  comparison of activity in IIS vs. tap water: No differences
[1]; topical, in IIS, 1 h
  lowering of pheromone content compared to the solvent: failed to lower pheromone content
[2]
  Melanotropic inhibitory activity, stimulator DH: 15%
  Melanotropic inhibitory activity, stimulator LPK: 100%
  Melanotropic inhibitory activity, stimulator PBAN: 7%
  Melanotropic inhibitory activity, stimulator PT: 6%
  inhibition of melanin synthesis stimulated by LPK: inhibited LPK

## Acetyl-Ala-Ser-Pro-[dPhe]-Leu-amide (Ac-ASP[dF]L-NH2; SMILES CC(=O)N[C@@H](C)C(=O)N[C@@H](CO)C(=O)N1CCC[C@H]1C(=O)N[C@H](Cc1ccccc1)C(=O)N[C@@H](CC(C)C)C(N)=O) [Ac-A-dPhe-6]
[1]
  comparison of activity in IIS vs. tap water: No differences
[1]; topical, in IIS, 1 h
  inhibition of pheromone biosynthesis: 74%
[1]; topical, 1 nmol in DDW, 1, 3 and 7 h
  potency as a function of application time: did not differ
[2]
  Melanotropic inhibitory activity, stimulator DH: 29%
  Melanotropic inhibitory activity, stimulator LPK: 0%
  Melanotropic inhibitory activity, stimulator PBAN: 63%
  Melanotropic inhibitory activity, stimulator PT: 100%
  inhibition of melanin synthesis stimulated by LPK: inhibited LPK
  inhibition of melanin synthesis stimulated by PBAN: inhibited PBAN
  inhibition of melanin synthesis stimulated by PT: inhibited PT
